Source: patent publication US10814115B2, “Microneedle devices and uses thereof” (MASSACHUSETTS INSTITUTE OF TECHNOLOGY, priority 2011, dated 2020)
Like-named read-outs stand apart in the source and are kept apart here.

Key:
[1] = cited from earlier work
[2] = Visualization study: dye injection into 1.5% porcine gelatin with the microneedle prototype device; settings: 0.025% dye
Method: Using porcine gelatin, the effects of a microneedle prototype device was evaluated. Specifically, porcine gelatin was prepared at a concentration of 1.5% to mimic the density of gastrointestinal tissue. The gelatin provided the added benefit of allowing the application site to be visualized. A prototype device filled with a solution of 0.025% allura red dye was applied to the gel and a volume of 100-300 microliters of dye was injected. A second device lacking the needles was also used as a control.
This highlights the efficacy of the microneedle device in deeper tissue penetration of the model drug compared to simple diffusion (simulated by the control device shown in FIGS. 10 A and B).

Yorkshire swine [3] = system: Yorkshire swine
Method: Yorkshire swine approximately 70 kg in weight were fasted overnight. The animal was sedated and a femoral venous catheter placed to enable frequent blood sampling for glucose monitoring. An endoscope was introduced orally or rectally depending on the tissue being accessed. Oral access for the stomach and small intestine and rectal access for the colon.
Glucose levels were monitored by frequent blood sampling via the femoral venous catheter with the aid of a glucometer.
This was administered with the use of a Carr-Locke needle which is 500 μm in length and 514 μm in diameter. Frequent blood glucose monitoring was performed via the use of a central line (femoral venous catheter).
To further validate the delivery of biologics at different segment we further evaluated the use of microinjection in the duodenum (the first part of the small intestine). Here the pH ranges from 5.5-7 and there are a broader range of proteases.
This was again administered with the use of the Carr-Locke needle. Frequent blood glucose monitoring was performed via the use of a central line (femoral venous catheter).
This was administered with the use of the microneedle prototype shown previously. Frequent blood glucose monitoring was performed via the use of a central line (femoral venous catheter).

Yorkshire swine [4] = settings: 100 units in 10 ml saline enema
Excerpt: In order to evaluate the efficacy of abrasion and drug delivery a Yorkshire swine animal 70 kg in weight was fasted overnight. The animal was sedated and a central venous line was placed for frequent blood sampling. The rectum was cleansed with a tap water enema and an abrasion created in the rectal mucosa.

Erythropoietin
Known Toxic Levels ([1]; in vivo): >100,000 units

CCCC1O[C@@H]2C[C@H]3[C@@H]4CCC5=CC(=O)C=C[C@]5(C)[C@H]4[C@@H](O)C[C@]3(C)[C@]2(C(=O)CO)O1 (some centres unmarked) [Budesonide]
Known Toxic Levels ([1]; in vivo): 3200 mg/kg

CC[C@H](C)[C@@H]1NC(=O)[C@H](Cc2ccc(O)cc2)NC(=O)[C@@H](N)CSSC[C@@H](C(=O)N2CCC[C@H]2C(=O)N[C@@H](CC(C)C)C(=O)NCC(N)=O)NC(=O)[C@H](CC(N)=O)NC(=O)[C@H](CCC(N)=O)NC1=O [Oxytocin]
Known Toxic Levels ([1]; in vivo): >10,000 units/kg

Rituximab
Known Toxic Levels ([1]; in vivo): >5 g/animal

CC[C@H](C)[C@H](NC(=O)[C@@H]1CCCN1C(=O)CNC(=O)[C@H](Cc1ccccc1)NC(=O)[C@H](CC(N)=O)NC(=O)[C@H](CC(N)=O)NC(=O)[C@H](CO)NC(=O)[C@H](CO)NC(=O)[C@H](Cc1c[nH]cn1)NC(=O)[C@@H](NC(=O)[C@H](CC(C)C)NC(=O)[C@H](Cc1ccccc1)NC(=O)[C@H](CC(N)=O)NC(=O)[C@H](C)NC(=O)[C@H](CC(C)C)NC(=O)[C@H](CCCNC(=N)N)NC(=O)[C@H](CCC(N)=O)NC(=O)[C@@H](NC(=O)[C@H](C)NC(=O)[C@@H]1CSSC[C@H](NC(=O)[C@@H](N)CCCCN)C(=O)N[C@@H](CC(N)=O)C(=O)N[C@@H]([C@@H](C)O)C(=O)N[C@@H](C)C(=O)N[C@@H]([C@@H](C)O)C(=O)N1)[C@@H](C)O)C(C)C)C(=O)N[C@@H](CC(C)C)C(=O)N1CCC[C@H]1C(=O)N1CCC[C@H]1C(=O)N[C@H](C(=O)N[C@@H](CC(N)=O)C(=O)N[C@H](C(=O)NCC(=O)N[C@@H](CO)C(=O)N[C@@H](CC(N)=O)C(=O)N[C@H](C(=O)N[C@@H](Cc1ccc(O)cc1)C(N)=O)[C@@H](C)O)C(C)C)[C@@H](C)O [Pramlintide]
Known Toxic Levels ([1]; in vivo): >600 µg/kg/day

Infliximab
Known Toxic Levels ([1]; no direct toxic effect observed): >20 mg/kg no

COc1cc(S(=O)(=O)[O-])c(C)cc1N=Nc1c(O)ccc2cc(S(=O)(=O)[O-])ccc12.[Na+].[Na+] [allura red dye, allura red]
Permeation of dye into gel matrix ([2]; control device lacking needles): expulsion of the dye over the gel surface
Permeation of dye into gel matrix ([2]; device with microneedles, 100-300 microliters): enabled permeation of the dye into the gel matrix

insulin aspart
Hypoglycemic response (blood glucose versus post-injection time) (Yorkshire swine [3]; colon, 20 units, microneedle prototype, one experiment): hypoglycemic response
Hypoglycemic response (blood glucose versus post-injection time) (Yorkshire swine [3]; duodenum, 10 units, Carr-Locke needle, one experiment): hypoglycemic response
Time to hypoglycemic response after administration (Yorkshire swine [3]; insulin injections, stomach, duodenum): 20 to 40 min
Hypoglycemic response (Yorkshire swine [3]; insulin release without the use of needles (control, 10 units)): did not induce a hypoglycemic (low glucose) response
Hypoglycemic response (blood glucose versus post-injection time) (Yorkshire swine [3]; stomach (transgastric), 10 units, Carr-Locke needle, 3 separate experiments): hypoglycemic response
Glucose levels after insulin enema (Yorkshire swine [4]; absence of an abrasion): did not decrease
Time to decrement in serum glucose after administration (Yorkshire swine [4]; rectal mucosa with abrasion): 20 to 30 min
Serum glucose level after insulin enema (Yorkshire swine [4]; rectal mucosa with abrasion, baseline glucose 80-82 mg/dL): 60 mg/dL

Etanercept
Known Toxic Levels ([1]; in vivo): >1000 mg/animal
